# Test results as given in patent US20110251220A1, “Pharmaceutical compositions comprising gamma secretase modulators” (priority 2008, published 2011).
# Legend:
# Assay type in all cases: cell-based, human
# [1] = tested on: LP-1 cells; assay: Cell cycle analysis (propidium iodide), sub-G1 fraction, LP-1; conditions: LP-1, after 72 h
# Experimental: The compound according to example 1, hereinafter referred to as GSI15, (compound RH02015SC, Maybridge, Acros Organics, Geel, Belgium) was freshly dissolved as 26 mM stock solution in Dimethylsulfoxide (DMSO). Multiple myeloma therapeutics used were melphalan (marketed as Alkeran®, GlaxoSmithKline, Munich, Germany) and bortezomib (marketed as Velcade®, Janssen-Cilag, Neuss, Germany). Melphalan was freshly dissolved at 10 mg/ml in 0.9% NaCl-solution. Bortezomib was freshly dissolved at 100 ng/ml in 0.9% NaCl solution. Gamma Secretase Inhibitor (GSI) treatment for apoptosis assessment by AnnexinV/PI staining, cell cycle analysis and coculture experiments was performed in 6-well plates. GSI15 stock solution was added directly to the cell suspension. GSI treatment for assaying proliferation was performed in 96-well plates. […]
# For cell cycle analysis 2×10^5 cells were spun down, medium was aspirated and cells washed with PBS. […] After 10 minutes incubation in the dark at room temperature, cells were analyzed by flow cytometry. The amount of apoptotic cells was determined by AnnexinV/propidium iodide staining using Human AnnexinV-FITC Kit (Bender Medsystems, Vienna, Austria), according to manufacturer's protocol. […] Cells were then spun down again, resuspended in binding buffer containing PI and analyzed by flow cytometry.
# [2] = tested on: U266 cells; assay: PARP cleavage by Western blotting, U266
# Experimental: (§1) Whole cell extracts were prepared and quantified as described in Jundt F, Anagnostopoulos I, Forster R, Mathas S, Stein H, Dorken B. Activated Notch1 signaling promotes tumor cell proliferation and survival in Hodgkin and anaplastic large cell lymphoma. Blood. 2002; 99:3398-3403. Proteins (30 μg) were resolved by sodium dodecyl sulfate-polyacrylamide gel electrophoresis (SDS-PAGE) and transferred to nitrocellulose membranes. Protein loading was normalized by Ponceau red staining. Membranes were incubated with monoclonal mouse anti-Notch1 antibody (no. 552466; BD Biosciences, Heidelberg, Germany), anti-Jagged1 antibody (sc-8303; Santa Cruz Biotechnology), polyclonal rabbit anti-Delta antiboday (Santa Cruz Biotechnology), polyclonal rabbit anti-cleaved PARP (Asp214) antibody (Cell Signaling Technologies, Frankfurt a.M., Germany) or mouse monoclonal anti-tubulin antibody (Sigma, Deisenhofen, Germany).
# (§2) Secondary antibodies were goat anti-mouse (Promega, Mannheim, Germany), goat anti-rat (Dianova, Hamburg, Germany), and goat anti-rabbit (Santa Cruz Biotechnology) horseradish peroxidase (HRP)-conjugated antibodies. Detection was done using Pico chemi-luminescence reagent (Perbio Science, Bonn, Germany).
# [3] = tested on: OCL; assay: PARP cleavage in osteoclasts (OCL), mono- and coculture
# Experimental: Human MM cell lines used were as follows: NCI-H929, OPM-2, LP-1, RPMI-8226, U266 (DSMZ, Braunschweig, Germany). Cell lines were cultured in RPMI 1640 medium (Biochrom, Berlin, Germany) supplemented with 10% heat-inactivated fetal calf serum (FCS, Gibco, Karlsruhe, Germany), 1 mM sodium pyruvate and 100 units/ml penicillin and 100 μg/ml streptomycin (Gibco). Human osteoclasts were obtained as described in the reference of Zavrski I, Krebbel H, Wildemann B, et al. Proteasome inhibitors abrogate osteoclast differentiation and osteoclast function. Biochem Biophys Res Commun. 2005; 333:200-205. Briefly, peripheral blood mononuclear cells (PBMC) were isolated from whole blood of healthy volunteers, using a Ficoll-Hypaque density gradient. The adherent fraction of the isolated mononuclear cells was cultured for 21 days in MEM medium (Sigma-Aldrich Chemie, Taufkirchen, Germany) supplemented with 10% FCS, 100 U/ml penicillin, 100 μg/ml streptomycin, 50 ng/ml M-CSF, and 25 ng/ml RANKL (osteoclastogenic medium), before coculture experiments and treatment with the inventive compounds started. […]
# Whole cell extracts were prepared and quantified as described in Jundt F, Anagnostopoulos I, Forster R, Mathas S, Stein H, Dorken B. Activated Notch1 signaling promotes tumor cell proliferation and survival in Hodgkin and anaplastic large cell lymphoma. […]
# [4] = tested on: MSC; assay: PARP cleavage in mesenchymal stem cells (MSC), mono- and coculture; conditions: mono- and cocultures, high doses of GSI15
# Experimental: as §1, §2
compound,measurement,setting,value
"CC(C)c1ccc(S(=O)(=O)Nc2cccnc2Oc2ccc(Cl)cc2)cc1 [Example 1, N-(2-(4-chlorophenoxy)pyridin-3-yl)-4-isopropylbenzenesulfonamide]",sub-G1 fraction,[1],increase in the sub-G1 fraction
same,PARP cleavage product (apoptosis marker),[2],not in the U266 cell line
same,PARP cleavage,[3]; OCL alone,did not induce PARP cleavage
same,PARP cleavage,"[3]; OCL cocultured with OPM-2 cells, high doses of GSI15",it was induced
same,PARP cleavage (apoptosis),[4],Neither in OBL nor in MSC apoptosis was induced
